Tested on: 324938-238-R-J1-PDC complex spheroids viability
Test: Anticancer human tumor 324938-238-R-J1-PDC patient-derived bladder carcinoma cell line growth inhibition [CLK]
Settings: for IC50: curve of first compound; for viability, T/C: stronger effect = lower value
Outline: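 Patient-derived tumor cells grown as complex spheroids with HUVEC endothelial cells and mesenchymal stem cells, treated with drug combinations. Concentrations descend in half-log steps from near clinical Cmax, or from 10 microM if Cmax unknown.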

[1] = second compound 0.0316 µM, first compound 0.0316 µM
[2] = second compound 0.0316 µM, first compound 0.1 µM
[3] = second compound 0.0316 µM, first compound 0.316 µM
[4] = second compound 0.0316 µM, first compound 1 µM
[5] = second compound 0.0316 µM, first compound 3.16 µM
[6] = second compound 0.0316 µM, first compound 10 µM
[7] = second compound 0.1 µM, first compound 0.0316 µM
[8] = second compound 0.1 µM, first compound 0.1 µM
[9] = second compound 0.1 µM, first compound 0.316 µM
[10] = second compound 0.1 µM, first compound 1 µM
[11] = second compound 0.1 µM, first compound 3.16 µM
[12] = second compound 0.1 µM, first compound 10 µM
[13] = second compound 0.316 µM, first compound 0.0316 µM
[14] = second compound 0.316 µM, first compound 0.1 µM
[15] = second compound 0.316 µM, first compound 0.316 µM
[16] = second compound 0.316 µM, first compound 1 µM
[17] = second compound 0.316 µM, first compound 3.16 µM
[18] = second compound 0.316 µM, first compound 10 µM
[19] = second compound 1 µM, first compound 0.0316 µM
[20] = second compound 1 µM, first compound 0.1 µM
[21] = second compound 1 µM, first compound 0.316 µM
[22] = second compound 1 µM, first compound 1 µM
[23] = second compound 1 µM, first compound 3.16 µM
[24] = second compound 1 µM, first compound 10 µM
[25] = second compound 3.16 µM, first compound 0.0316 µM
[26] = second compound 3.16 µM, first compound 0.1 µM
[27] = second compound 3.16 µM, first compound 0.316 µM
[28] = second compound 3.16 µM, first compound 1 µM
[29] = second compound 3.16 µM, first compound 3.16 µM
[30] = second compound 3.16 µM, first compound 10 µM
[31] = second compound 10 µM, first compound 0.0316 µM
[32] = second compound 10 µM, first compound 0.1 µM
[33] = second compound 10 µM, first compound 0.316 µM
[34] = second compound 10 µM, first compound 1 µM
[35] = second compound 10 µM, first compound 3.16 µM
[36] = second compound 10 µM, first compound 10 µM
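Further: viability read after seven days of drug exposure.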
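Wherever viability, T/C is given: 100% = DMSO vehicle control wells.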

COc1ccc([C@@H](O)c2cc(-c3ncnc4cc(N5CCOCC5)ccc34)c(F)cc2Cl)nn1 + CN1CCN(c2cc(C(=O)Nc3cc4cc(-c5cnn(C)c5)ccc4cn3)ccn2)CC1
IC50 (second compound 0.0316 µM): 2010 nM | IC50 (second compound 0.1 µM): 57.5 nM | IC50 (second compound 0.316 µM): < 31.6 nM | IC50 (second compound 1 µM): < 31.6 nM | IC50 (second compound 3.16 µM): < 31.6 nM | IC50 (second compound 10 µM): < 31.6 nM | viability, T/C [1]: 72% | viability, T/C [2]: 78.8% | viability, T/C [3]: 65.8% | viability, T/C [4]: 59.8% | viability, T/C [5]: 44.1% | viability, T/C [6]: 34.7% | viability, T/C [7]: 53% | viability, T/C [8]: 48% | viability, T/C [9]: 40.3% | viability, T/C [10]: 44.5% | viability, T/C [11]: 37.8% | viability, T/C [12]: 30.9% | viability, T/C [13]: 19.6% | viability, T/C [14]: 21.9% | viability, T/C [15]: 21.4% | viability, T/C [16]: 20.2% | viability, T/C [17]: 19% | viability, T/C [18]: 18.9% | viability, T/C [19]: 0.42% | viability, T/C [20]: 0.46% | viability, T/C [21]: 0.79% | viability, T/C [22]: 0.47% | viability, T/C [23]: 1.14% | viability, T/C [24]: 0.71% | viability, T/C [25]: 0.13% | viability, T/C [26]: 0.16% | viability, T/C [27]: 0.28% | viability, T/C [28]: 0.12% | viability, T/C [29]: 0.24% | viability, T/C [30]: 0.29% | viability, T/C [31]: 0.06% | viability, T/C [32]: 0.14% | viability, T/C [33]: 0.25% | viability, T/C [34]: 0.13% | viability, T/C [35]: 0.31% | viability, T/C [36]: 0.58%

COc1cccc2c1C(=O)c1c(O)c3c(c(O)c1C2=O)CC(O)(C(=O)CO)CC3OC1CC(N)C(O)C(C)O1 (centres undefined) + CN1CCN(c2cc(C(=O)Nc3cc4cc(-c5cnn(C)c5)ccc4cn3)ccn2)CC1
IC50 (second compound 0.0316 µM): < 31.6 nM | IC50 (second compound 0.1 µM): < 31.6 nM | IC50 (second compound 0.316 µM): < 31.6 nM | IC50 (second compound 1 µM): < 31.6 nM | IC50 (second compound 3.16 µM): < 31.6 nM | IC50 (second compound 10 µM): < 31.6 nM | viability, T/C [1]: 19.4% | viability, T/C [2]: 14.4% | viability, T/C [3]: 8.3% | viability, T/C [4]: 0.88% | viability, T/C [5]: 0.09% | viability, T/C [6]: 0.14% | viability, T/C [7]: 16.9% | viability, T/C [8]: 16.5% | viability, T/C [9]: 8.06% | viability, T/C [10]: 0.56% | viability, T/C [11]: 0.09% | viability, T/C [12]: 0.68% | viability, T/C [13]: 17.8% | viability, T/C [14]: 16.2% | viability, T/C [15]: 4.21% | viability, T/C [16]: 0.29% | viability, T/C [17]: 0.07% | viability, T/C [18]: 0.12% | viability, T/C [19]: 0.37% | viability, T/C [20]: 0.2% | viability, T/C [21]: 0.1% | viability, T/C [22]: 0.09% | viability, T/C [23]: 0.35% | viability, T/C [24]: 0.44% | viability, T/C [25]: 0.12% | viability, T/C [26]: 0.28% | viability, T/C [27]: 0.17% | viability, T/C [28]: 0.06% | viability, T/C [29]: 0.22% | viability, T/C [30]: 0.3% | viability, T/C [31]: 0.09% | viability, T/C [32]: 0.18% | viability, T/C [33]: 0.26% | viability, T/C [34]: 0.1% | viability, T/C [35]: 0.15% | viability, T/C [36]: 0.48%
